From ChEMBL document CHEMBL1145134, “Inclusion complexation and solubilization of paclitaxel by bridged bis(beta-cyclodextrin)s containing a tetraethylenepentaamino spacer” (2003)

Tested on: K562
Assay: Antiproliferative activity of the paclitaxel-TPCD complex was tested against K562 erythroleukemia after 72 hr at a concentration of 1E-6 mg/mL using MTT cytotoxicity assay
Assay type: functional, Homo sapiens

Question: Which Activity does the source give for `CC(=O)O[C@H]1C(=O)[C@@]2(C)[C@H]([C@H](OC(=O)c3ccccc3)[C@]3(O)C[C@H](OC(=O)[C@H](O)[C@@H](NC(=O)c4ccccc4)c4ccccc4)C(C)=C1C3(C)C)[C@]1(OC(C)=O)CO[C@@H]1C[C@@H]2O` [PACLITAXEL] here?
Answer: 57.7%
